Here are results for ten compounds from patent publication US8822471B2, “Compounds, pharmaceutical compositions and uses thereof” (Boehringer Ingelheim International GmbH, priority 2011, dated 2014).

The target of the test is T1, mutant form of the human GPR119 receptor (Homo sapiens, UniProt Q8TDV5, S329A/T327A).
T1 construct: T327 & S329 changed to alanines; expressed in transfected cells
T1 sequence (Q8TDV5 2-335 T327A/S329A): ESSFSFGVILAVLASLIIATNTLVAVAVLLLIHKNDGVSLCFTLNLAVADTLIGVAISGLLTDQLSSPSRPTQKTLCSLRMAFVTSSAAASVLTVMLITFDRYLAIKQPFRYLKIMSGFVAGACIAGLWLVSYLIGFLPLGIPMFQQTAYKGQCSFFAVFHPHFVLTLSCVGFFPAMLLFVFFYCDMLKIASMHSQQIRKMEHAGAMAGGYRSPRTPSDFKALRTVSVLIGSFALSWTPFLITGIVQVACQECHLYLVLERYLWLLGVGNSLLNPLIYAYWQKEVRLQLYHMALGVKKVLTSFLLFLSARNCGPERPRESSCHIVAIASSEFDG
As to the kind of experiment: LANCE cAMP-384 assay in HEK293 cells stably expressing a mutant form of the human GPR119 receptor. It is filed as cell-based. The conditions noted are these: HEK293 cells stably expressing mutant human GPR119, LANCE cAMP-384 Kit, 20 min at 37° C. The procedure:
Quantitative detection of cAMP accumulation from cells expressing human GPR119 receptor is achieved using Perkin Elmer's LANCE cAMP-384 Kit (Cat#AD0264) according to the manufacturer's protocol. Briefly, HEK293 cells stably expressing a mutant form of the human GPR119 receptor as assay tool (Methionine 1 replaced with the amino acid sequence […], and T327 & S329 changed to alanines; SEQ ID No. 1) are grown to 50-70% confluency in cell culture media (DMEM, 10% heat inactivated Fetal Bovine Serum, 50 I.U./mL penicillin, 50 μg/mL streptomycin, 10 mM HEPES, 20 μg/mL G418 Sulfate). On the day of the assay, GPR119 stable HEK293 cells are lifted from the tissue culture plate and 1000 cells/well are incubated along with various concentrations of test compounds for 20 min at 37° C. Detection Buffer (50 mM HEPES, 10 mM calcium chloride, 0.35% Triton X-100, 1 mg/mL BSA) containing cAMP-specific antibody is then added to all wells and allowed to equilibrate in the dark for 10 minutes at room temperature. Upon equilibration, Detection Buffer containing europium-labeled cAMP tracer complex is added to all wells and allowed to react for 1 hour at room temperature. After 1 hour, bound europium-labeled cAMP tracer is measured using a Perkin Elmer Envision plate reader. The quantity of cAMP generated in each well is derived from a standard curve. EC50 is determined using nonlinear regression analysis of the cAMP values over a range of agonist concentration (12 points spanning the range from 30 μM to 100 pM).

Consider `Cc1ncnn1-c1ccc(C(=O)N(C2CC2)C2CCN(c3ncc(Cl)cn3)CC2)cc1` [Example 109, N-[1-(5-Chloro-pyrimidin-2-yl)-piperidin-4-yl]-N-cyclopropyl-4-(5-methyl-[1,2,4]triazol-1-yl)-benzamide], for which the EC50 was 1740 nM. `O=C(c1ccc(-n2cnnn2)cc1)N(C1CC1)C1CCN(c2ncc(Cl)cn2)CC1` [Example 110, N-[1-(5-Chloro-pyrimidin-2-yl)-piperidin-4-yl]-N-cyclopropyl-4-tetrazol-1-yl-benzamide]: the EC50 amounted to 360 nM. As for `Cc1nnnn1-c1ccc(C(=O)N(C2CC2)C2CCN(c3ncc(Cl)cn3)CC2)cc1` [Example 111, N-[1-(5-Chloro-pyrimidin-2-yl)-piperidin-4-yl]-N-cyclopropyl-4-(5-methyl-tetrazol-1-yl)-benzamide], the concentration giving a half-maximal response (EC50) was found to be 407 nM. Turning to `Cc1nccn1-c1ccc(C(=O)N(C2CC2)C2CCN(c3ncc(Cl)cn3)CC2)cc1F` [Example 112, N-[1-(5-Chloro-pyrimidin-2-yl)-piperidin-4-yl]-N-cyclopropyl-3-fluoro-4-(2-methyl-imidazol-1-yl)-benzamide], the EC50 came to 1500 nM. `O=C(c1ccc(-n2cncn2)c(F)c1)N(C1CC1)C1CCN(c2ncc(Cl)cn2)CC1` [Example 113, N-[1-(5-Chloro-pyrimidin-2-yl)-piperidin-4-yl]-N-cyclopropyl-3-fluoro-4-[1,2,4]triazol-1-yl-benzamide] displayed an EC50 of 47 nM. With `O=C(c1ccc(-n2cnnn2)c(F)c1)N(C1CC1)C1CCN(c2ncc(Cl)cn2)CC1` [Example 115, N-[1-(5-Chloro-pyrimidin-2-yl)-piperidin-4-yl]-N-cyclopropyl-3-fluoro-4-tetrazol-1-yl-benzamide], the EC50 is 54 nM.

With `Cc1nnnn1-c1ccc(C(=O)N(C2CC2)C2CCN(c3ncc(Cl)cn3)CC2)cc1F` [Example 116, N-[1-(5-Chloro-pyrimidin-2-yl)-piperidin-4-yl]-N-cyclopropyl-3-fluoro-4-(5-methyl-tetrazol-1-yl)-benzamide], a half-maximal effect (EC50) was put at 294 nM. The same measure for `O=C(c1ccc(-n2cnnn2)cc1)N(C1CC1)C1CCN(c2ncc(C(F)(F)F)cc2F)CC1` [Example 117, N-Cyclopropyl-N-(3′-fluoro-5′-trifluoromethyl-3,4,5,6-tetrahydro-2H-[1,2′]bipyridinyl-4-yl)-4-tetrazol-1-yl-benzamide]: 53 nM. Compound `Cc1nnnn1-c1ccc(C(=O)N(C2CC2)C2CCN(c3ncc(C(F)(F)F)cc3F)CC2)cc1` [Example 118, N-Cyclopropyl-N-(3′-fluoro-5′-trifluoromethyl-3,4,5,6-tetrahydro-2H-[1,2′]bipyridinyl-4-yl)-4-(5-methyl-tetrazol-1-yl)-benzamide] gave an EC50 of 101 nM.

`Cc1nnnn1-c1ccc(C(=O)N(C2CC2)C2CCN(c3ncc(C(F)(F)F)cc3F)CC2)cc1F` [Example 119, N-Cyclopropyl-3-fluoro-N-(3′-fluoro-5′-trifluoromethyl-3,4,5,6-tetrahydro-2H-[1,2]bipyridinyl-4-yl)-4-(5-methyl-tetrazol-1-yl)-benzamide] gave a half-maximal effective concentration (EC50) of 117 nM.
